# Test results: the CombiSolv-Exp solvation set (Vermeire and Green 2021)
# Experiment: solvent given as SMILES
# [1] = in CC(C)CCCC(C)CCCC(C)CCCCC(C)CCCC(C)CCCC(C)C
compound,measurement,setting,value
CC(C)CCC(C)C,"solvation free energy, 298 K",in Brc1ccccc1,-4.53 kcal/mol
same,"solvation free energy, 298 K",in C1CCCCC1,-5.02 kcal/mol
same,"solvation free energy, 298 K",in C1CCOC1,-4.85 kcal/mol
same,"solvation free energy, 298 K",in C1COCCO1,-4.04 kcal/mol
same,"solvation free energy, 298 K",in C=CCCCC,-4.95 kcal/mol
same,"solvation free energy, 298 K",in C=CCCCCCC,-4.85 kcal/mol
same,"solvation free energy, 298 K",in C=CCCCCCCCC,-4.75 kcal/mol
same,"solvation free energy, 298 K",in CC1COC(=O)O1,-2.64 kcal/mol
same,"solvation free energy, 298 K",in CC#N,-3.31 kcal/mol
same,"solvation free energy, 298 K",in CC(=O)N(C)C,-3.54 kcal/mol
same,"solvation free energy, 298 K",in CC(=O)O,-3.59 kcal/mol
same,"solvation free energy, 298 K",in CC(=O)c1ccccc1,-3.84 kcal/mol
same,"solvation free energy, 298 K",in CC(C)=O,-4.03 kcal/mol
same,"solvation free energy, 298 K",in CC(C)CC(C)(C)C,-4.84 kcal/mol
same,"solvation free energy, 298 K",[1],-4.35 kcal/mol
same,"solvation free energy, 298 K",in CC(C)CCO,-4.21 kcal/mol
same,"solvation free energy, 298 K",in CC(C)O,-3.99 kcal/mol
same,"solvation free energy, 298 K",in CC(C)OC(C)C,-4.85 kcal/mol
same,"solvation free energy, 298 K",in CCBr,-4.97 kcal/mol
same,"solvation free energy, 298 K",in CCC#N,-3.76 kcal/mol
same,"solvation free energy, 298 K",in CCC(C)=O,-4.29 kcal/mol
same,"solvation free energy, 298 K",in CCCC#N,-4 kcal/mol
same,"solvation free energy, 298 K",in CCCC(=O)OCC,-4.52 kcal/mol
same,"solvation free energy, 298 K",in CCCC(C)=O,-4.38 kcal/mol
same,"solvation free energy, 298 K",in CCCCC,-5.01 kcal/mol
same,"solvation free energy, 298 K",in CCCCCC,-4.97 kcal/mol
same,"solvation free energy, 298 K",in CCCCCC(C)=O,-4.4 kcal/mol
same,"solvation free energy, 298 K",in CCCCCCC,-4.9 kcal/mol
same,"solvation free energy, 298 K",in CCCCCCCC,-4.83 kcal/mol
same,"solvation free energy, 298 K",in CCCCCCCCC,-4.79 kcal/mol
same,"solvation free energy, 298 K",in CCCCCCCCCC,-4.74 kcal/mol
same,"solvation free energy, 298 K",in CCCCCCCCCCCC,-4.63 kcal/mol
same,"solvation free energy, 298 K",in CCCCCCCCCCCCCCCC,-4.53 kcal/mol
same,"solvation free energy, 298 K",in CCCCCCCCO,-4.21 kcal/mol
same,"solvation free energy, 298 K",in CCCCCCOC(C)=O,-4.48 kcal/mol
same,"solvation free energy, 298 K",in CCCCO,-4.1 kcal/mol
same,"solvation free energy, 298 K",in CCCCOC(C)=O,-4.46 kcal/mol
same,"solvation free energy, 298 K",in CCCCOCCCC,-4.81 kcal/mol
same,"solvation free energy, 298 K",in CCCO,-4.07 kcal/mol
same,"solvation free energy, 298 K",in CCN(CC)CC,-4.89 kcal/mol
same,"solvation free energy, 298 K",in CCO,-3.92 kcal/mol
same,"solvation free energy, 298 K",in CCOC(C)=O,-4.31 kcal/mol
same,"solvation free energy, 298 K",in CCOCC,-4.91 kcal/mol
same,"solvation free energy, 298 K",in CCOCCOCCOCC,-4.23 kcal/mol
same,"solvation free energy, 298 K",in CCOc1ccccc1,-4.31 kcal/mol
same,"solvation free energy, 298 K",in CN1CCCC1=O,-3.42 kcal/mol
same,"solvation free energy, 298 K",in CN(C)C=O,-3.35 kcal/mol
same,"solvation free energy, 298 K",in CN(C)P(=O)(N(C)C)N(C)C,-3.84 kcal/mol
same,"solvation free energy, 298 K",in CNC=O,-2.97 kcal/mol
same,"solvation free energy, 298 K",in CO,-3.55 kcal/mol
same,"solvation free energy, 298 K",in COC(C)=O,-4.11 kcal/mol
same,"solvation free energy, 298 K",in COCCO,-3.43 kcal/mol
same,"solvation free energy, 298 K",in COc1ccccc1,-4.22 kcal/mol
same,"solvation free energy, 298 K",in CS(C)=O,-2.41 kcal/mol
same,"solvation free energy, 298 K",in Cc1ccc(C)cc1,-4.77 kcal/mol
same,"solvation free energy, 298 K",in Cc1ccccc1,-4.76 kcal/mol
same,"solvation free energy, 298 K",in Cc1ccccn1,-4.33 kcal/mol
same,"solvation free energy, 298 K",in ClC(Cl)(Cl)Cl,-5.01 kcal/mol
same,"solvation free energy, 298 K",in ClC(Cl)Cl,-4.88 kcal/mol
same,"solvation free energy, 298 K",in ClCCCl,-4.29 kcal/mol
same,"solvation free energy, 298 K",in ClCCl,-4.64 kcal/mol
same,"solvation free energy, 298 K",in Clc1ccccc1,-4.75 kcal/mol
same,"solvation free energy, 298 K",in FC(F)(F)C(F)(F)C(F)(F)C(F)(F)C(F)(F)C(F)(F)C(F)(F)C(F)(F)F,-3.22 kcal/mol
same,"solvation free energy, 298 K",in FC(F)(F)C(F)(F)C(F)(F)C(F)(F)C(F)(F)C(F)(F)F,-3.3 kcal/mol
same,"solvation free energy, 298 K",in Fc1ccccc1,-4.66 kcal/mol
same,"solvation free energy, 298 K",in ICI,-2.71 kcal/mol
same,"solvation free energy, 298 K",in N#Cc1ccccc1,-3.85 kcal/mol
same,"solvation free energy, 298 K",in Nc1ccccc1,-3.11 kcal/mol
same,"solvation free energy, 298 K",in O,2.78 kcal/mol
same,"solvation free energy, 298 K",in O=C1CCCCC1,-4.2 kcal/mol
same,"solvation free energy, 298 K",in O=C1CCCO1,-2.85 kcal/mol
same,"solvation free energy, 298 K",in OCc1ccccc1,-3.33 kcal/mol
same,"solvation free energy, 298 K",in S=C=S,-4.94 kcal/mol
same,"solvation free energy, 298 K",in c1ccccc1,-4.76 kcal/mol
same,"solvation free energy, 298 K",in c1ccncc1,-4.06 kcal/mol
O=[N+]([O-])c1cccc(CO)c1,"solvation free energy, 298 K",in O,-9.19 kcal/mol
C=C(C)C1CC=C(C)C(OC(=O)CC)C1 (stereo unspecified),"solvation free energy, 298 K",in O,-3.87 kcal/mol
Clc1ccc(-c2ccc(Cl)c(Cl)c2)c(Cl)c1,"solvation free energy, 298 K",in O,-3.15 kcal/mol
CC(C)(c1ccc(O)cc1)c1ccc(O)cc1,"solvation free energy, 298 K",in CCCCCCC,-13 kcal/mol
same,"solvation free energy, 298 K",in CCCCCCCC,-12.9 kcal/mol
same,"solvation free energy, 298 K",in CCCCCCCCCC,-12.8 kcal/mol
same,"solvation free energy, 298 K",in Cc1ccc(C)cc1,-15.5 kcal/mol
same,"solvation free energy, 298 K",in Cc1cccc(C)c1,-15.5 kcal/mol
same,"solvation free energy, 298 K",in Cc1ccccc1C,-15.6 kcal/mol
same,"solvation free energy, 298 K",in O,-14.4 kcal/mol
c1ccc2cc3c(ccc4ccccc43)cc2c1,"solvation free energy, 298 K",in O,-6.26 kcal/mol
CC(=O)OCC(COC(C)=O)OC(C)=O,"solvation free energy, 298 K",in O,-8.84 kcal/mol
Nc1ccc(S(=O)(=O)NC(=O)c2ccccc2)cc1,"solvation free energy, 298 K",in O,-18.1 kcal/mol
CCNc1nc(NC(C)(C)C)nc(OC)n1,"solvation free energy, 298 K",in O,-9 kcal/mol
Cc1cccc(O)c1,"solvation free energy, 298 K",[1],-5.78 kcal/mol
same,"solvation free energy, 298 K",in CCCCCC,-5.84 kcal/mol
same,"solvation free energy, 298 K",in CCCCCCCCCCCCCCCC,-5.73 kcal/mol
[N]=O,"solvation free energy, 298 K",in CC#N,0.63 kcal/mol
same,"solvation free energy, 298 K",in CCCCCC,0.47 kcal/mol
same,"solvation free energy, 298 K",in CCO,0.81 kcal/mol
same,"solvation free energy, 298 K",in CCOC(C)=O,0.55 kcal/mol
same,"solvation free energy, 298 K",in CCOCC,0.34 kcal/mol
same,"solvation free energy, 298 K",in CO,0.62 kcal/mol
same,"solvation free energy, 298 K",in Cc1cccc(C)c1,0.79 kcal/mol
same,"solvation free energy, 298 K",in Cc1ccccc1,0.76 kcal/mol
same,"solvation free energy, 298 K",in ClC(Cl)(Cl)Cl,0.62 kcal/mol
Clc1c(Cl)c(Cl)c2c(c1Cl)Oc1ccccc1O2,"solvation free energy, 298 K",in O,-3.81 kcal/mol
Clc1ccc(-c2ccccc2)cc1,"solvation free energy, 298 K",in CCCCCCCCC=CCCCCCCCC(=O)OCC(COC(=O)CCCCCCCC=CCCCCCCCC)OC(=O)CCCCCCCC=CCCCCCCCC,-9.7 kcal/mol
same,"solvation free energy, 298 K",in CCCCCCCCO,-9.25 kcal/mol
same,"solvation free energy, 298 K",in O,-2.44 kcal/mol
O=C(CCCN1CCC(O)(c2ccc(Cl)cc2)CC1)c1ccc(F)cc1,"solvation free energy, 298 K",in CCCCOC(C)=O,-19.5 kcal/mol
same,"solvation free energy, 298 K",in O,-15.4 kcal/mol
O=C(O)c1cccc2ccccc12,"solvation free energy, 298 K",in C=CCCCCCCC=C,-9.51 kcal/mol
same,"solvation free energy, 298 K",in C=CCCCCCCCCCCCCCC,-9.45 kcal/mol
same,"solvation free energy, 298 K",in O,-9.04 kcal/mol
COc1ccc(N)cc1,"solvation free energy, 298 K",in CC(C)CCO,-8.92 kcal/mol
same,"solvation free energy, 298 K",in O,-7.54 kcal/mol
FCF,"solvation free energy, 298 K",in CCCCCCCCC,-0.37 kcal/mol
same,"solvation free energy, 298 K",in CCCCCCCCO,-0.57 kcal/mol
same,"solvation free energy, 298 K",in CN1CCCC1=O,-1.69 kcal/mol
same,"solvation free energy, 298 K",in CN(C)C=O,-1.69 kcal/mol
same,"solvation free energy, 298 K",in O,-0.33 kcal/mol
COC(=O)c1ccc(Br)cc1,"solvation free energy, 298 K",in CN(C)C=O,-9.25 kcal/mol
same,"solvation free energy, 298 K",in O,-4.26 kcal/mol
CCCCCCCCC=CCCCCCCCCCCCC(=O)OC,"solvation free energy, 298 K",in O,-1.09 kcal/mol
C=C(C)C(=O)O,"solvation free energy, 298 K",in O,-6.08 kcal/mol
